Measurements published in patent US20240002391A1, “4-ALKOXYPYRROLO[2,1-F][1,2,4]TRIAZINES AND PREPARATION AND USES THEREOF” (BioSplice Therapeutics, Inc., priority 2022, published 2024).

Molecular target: recombinant DYRK1A kinase (Homo sapiens (Human), UniProt Q13627)
Assay: DYRK1A kinase assay (Ser/Thr 18 peptide Z-lyte FRET)
Type: biochemical
Details: DYRK1A kinase activity, Z-lyte Ser/Thr 18 peptide, 15 μM ATP; method text calls the value IC50; read-out: EC50 (the source's name)
Description: Representative compounds were screened using the assay procedure for DYRK1A kinase activity as described below.
Each compound was dissolved in DMSO as a 10 mM stock and used to prepare compound source plates. Serial dilution (1:3, 11-point dose-response curves from 10 μM to 0.00016 μM) and compound transfer was performed using the ECHO 550 (Labcyte, Sunnyvale, CA) into 1536-well black-walled round bottom plates (Coming).
The DYRK1A kinase assay was run using the Ser/Thr 18 peptide Z-lyte assay kit according to manufacturer's instructions (Life Technologies-a Division of Thermo-Fisher). This is a non-radioactive assay using fluorescence resonance energy transfer (FRET) between coumarin and fluorescein to detect kinase activity which is represented as a ratio of coumarin emission/fluorescein emission.
Briefly, recombinant DYRK1A kinase, ATP and Ser/Thr peptide 18 were prepared in 1X Kinase buffer to final concentrations of 0.25 μg/mL, 15 μM, and 4 μM respectively. The mixture was allowed to incubate with the representative compounds for one hour at room temperature. All reactions were performed in duplicate. Unphosphorylated (“0% Control”) and phosphorylated (“100% control”) forms of Ser/Thr 18 served as control reactions. Additionally, an 11-point dose-response curve of Staurosporine (luM top) was run to serve as a positive compound control.
After incubation, Development Reagent A was diluted in Development Buffer then added to the reaction and allowed to further incubate for one hour at room temperature. The plate was read at Ex 400 Em 455 to detect the coumarin signal and Ex 400 Em 520 to measure the signal (EnVision Multilabel Plate Reader, PerkinElmer).
The Emission ratio (Em) was calculated as a ratio of the coumarin (C) emission signal (at 445 nm)/Fluorescein (F) emission signal (at 520 nm). The percent phosphorylation was then calculated using the following formula: [1−((Em ratio X F100%)-C100%)/((C0%-C100%) +(Em ratio X (F100%−F0%)))]. Dose-response curves were generated, and inhibitory concentration (IC50) values were calculated using non-linear regression curve fit in the Dotmatics' Studies Software (Bishops Stortford, UK).

Row | SMILES | IC50 [nM]
1 | COc1nc(NC2CCN(CC(F)F)CC2)nn2ccc(-c3ccc4nccn4c3)c12 [Compound 61, N-(1-(2,2-Difluoroethyl)piperidin-4-yl)-5-(imidazo[1,2-a]pyridin-6-yl)-4-methoxypyrrolo[2,1-f][1,2,4]triazin-2-amine] | 4.9
2 | COc1nc(NC2CCN(C3COC3)CC2)nn2ccc(-c3ccc4nccn4c3)c12 [Compound 62, 5-(Imidazo[1,2-a]pyridin-6-yl)-4-methoxy-N-(1-(oxetan-3-yl)piperidin-4-yl)pyrrolo[2,1-f][1,2,4]triazin-2-amine] | 8.5
3 | COc1nc(NC2CCN(C(C)=O)CC2)nn2ccc(-c3ccc4nccn4c3)c12 [Compound 63, 1-(4-((5-(Imidazo[1,2-a]pyridin-6-yl)-4-methoxypyrrolo[2,1-f][1,2,4]triazin-2-yl)amino)piperidin-1-yl)ethan-1-one] | 4.6
4 | COc1nc(N[C@@H]2CCN(C)C[C@@H]2F)nn2ccc(-c3ccc4nccn4c3)c12 [Compound 67, N-((3S,4R)-3-Fluoro-1-methylpiperidin-4-yl)-5-(imidazo[1,2-a]pyridin-6-yl)-4-methoxypyrrolo[2,1-f][1,2,4]triazin-2-amine] | 5.6
5 | COc1nc(NC2CC3(COC3)C2)nn2ccc(-c3ccc4nccn4c3)c12 [Compound 74, 5-(Imidazo[1,2-a]pyridin-6-yl)-4-methoxy-N-(2-oxaspiro[3.3]heptan-6-yl)pyrrolo[2,1-f][1,2,4]triazin-2-amine] | 5.2
6 | COc1nc(N[C@@H]2[C@@H]3COC[C@@H]32)nn2ccc(-c3ccn4nccc4c3)c12 [Compound 80, N-((1R,5S,6s)-3-Oxabicyclo[3.1.0]hexan-6-yl)-4-methoxy-5-(pyrazolo[1,5-a]pyridin-5-yl)pyrrolo[2,1-f][1,2,4]triazin-2-amine] | 56.2
7 | CCOc1nc(N[C@H]2C[C@@H](OCCO)C2)nn2ccc(-c3ccn4nccc4c3)c12 [Compound 91, 2-(cis-3-((4-Ethoxy-5-(pyrazolo[1,5-a]pyridin-5-yl)pyrrolo[2,1-f][1,2,4]triazin-2-yl)amino)cyclobutoxy)ethan-1-ol] | 1.6
8 | COc1nc(NC2CC3(C2)CN(C(=O)OC(C)(C)C)C3)nn2ccc(-c3ccn4nccc4c3)c12 [Compound 92, tert-Butyl 6-((4-methoxy-5-(pyrazolo[1,5-a]pyridin-5-yl)pyrrolo[2,1-f][1,2,4]triazin-2-yl)amino)-2-azaspiro[3.3]heptane-2-carboxylate] | 62.6
9 | COc1nc(N[C@H](C)c2ccccn2)nn2ccc(-c3ccn4nccc4c3)c12 [Compound 93, (R)-4-Methoxy-5-(pyrazolo[1,5-a]pyridin-5-yl)-N-(1-(pyridin-2-yl)ethyl)pyrrolo[2,1-f][1,2,4]triazin-2-amine] | 194
10 | COc1nc(N[C@H]2C[C@](C)(N)C2)nn2ccc(-c3ccn4nccc4c3)c12 [Compound 94, trans-N1-(4-Methoxy-5-(pyrazolo[1,5-a]pyridin-5-yl)pyrrolo[2,1-f][1,2,4]triazin-2-yl)-3-methylcyclobutane-1,3-diamine] | 4.1
11 | COc1nc(N[C@H]2C[C@@](C)(N)C2)nn2ccc(-c3ccn4nccc4c3)c12 [Compound 95, cis-N1-(4-Methoxy-5-(pyrazolo[1,5-a]pyridin-5-yl)pyrrolo[2,1-f][1,2,4]triazin-2-yl)-3-methylcyclobutane-1,3-diamine] | 8.2
12 | COc1nc(N[C@H]2C[C@](C)(NC(C)=O)C2)nn2ccc(-c3ccn4nccc4c3)c12 [Compound 96, N-(trans-3-((4-Methoxy-5-(pyrazolo[1,5-a]pyridin-5-yl)pyrrolo[2,1-f][1,2,4]triazin-2-yl)amino)-1-methylcyclobutyl)acetamide] | 1
13 | COc1nc(N[C@H]2C[C@@](C)(NC(C)=O)C2)nn2ccc(-c3ccn4nccc4c3)c12 [Compound 97, N-(cis-3-((4-Methoxy-5-(pyrazolo[1,5-a]pyridin-5-yl)pyrrolo[2,1-f][1,2,4]triazin-2-yl)amino)-1-methylcyclobutyl)acetamide] | 1.1
14 | COc1nc(N[C@H]2C[C@](C)(NC(=O)OC(C)(C)C)C2)nn2ccc(-c3ccn4nccc4c3)c12 [Compound 98, tert-Butyl (trans-3-((4-methoxy-5-(pyrazolo[1,5-a]pyridin-5-yl)pyrrolo[2,1-f][1,2,4]triazin-2-yl)amino)-1-methylcyclobutyl)carbamate] | 25.6
15 | CCOc1nc(NC2CC3(C2)CN(C(C)=O)C3)nn2ccc(-c3ccn4nccc4c3)c12 [Compound 99, 1-(6-((4-Ethoxy-5-(pyrazolo[1,5-a]pyridin-5-yl)pyrrolo[2,1-f][1,2,4]triazin-2-yl)amino)-2-azaspiro[3.3]heptan-2-yl)ethan-1-one] | 4.5
16 | CNC(=O)c1cnn2ccc(-c3ccn4nc(NC5CCC6(CC5)COC6)nc(OC)c34)cc12 [Compound 102, 5-(2-((2-Oxaspiro[3.5]nonan-7-yl)amino)-4-methoxypyrrolo[2,1-f][1,2,4]triazin-5-yl)-N-methylpyrazolo[1,5-a]pyridine-3-carboxamide] | 1.9
17 | COc1nc(N[C@H]2CC[C@](C)(O)CC2)nn2ccc(-c3ccc4ncc(C#N)n4c3)c12 [Compound 103, 6-(2-((trans-4-hydroxy-4-methylcyclohexyl)amino)-4-methoxypyrrolo[2,1-f][1,2,4]triazin-5-yl)imidazo[1,2-a]pyridine-3-carbonitrile] | 5.9
18 | COc1nc(N[C@H]2CC[C@](C)(O)CC2)nn2ccc(-c3ccc4ncc(C(N)=O)n4c3)c12 [Compound 104, 6-(2-((trans-4-hydroxy-4-methylcyclohexyl)amino)-4-methoxypyrrolo[2,1-f][1,2,4]triazin-5-yl)imidazo[1,2-a]pyridine-3-carboxamide] | 1.2
19 | CNC(=O)c1cnc2ccc(-c3ccn4nc(NC5CCC6(CC5)COC6)nc(OC)c34)cn12 [Compound 107, 6-(2-((2-Oxaspiro[3.5]nonan-7-yl)amino)-4-methoxypyrrolo[2,1-f][1,2,4]triazin-5-yl)-N-methylimidazo[1,2-a]pyridine-3-carboxamide] | 0.9
20 | COc1nc(N[C@H]2C[C@@](C)(NC(C)=O)C2)nn2ccc(-c3ccc4nc(C)n(CC(F)F)c4c3)c12 [Compound 108, N-(cis-3-((5-(1-(2,2-Difluoroethyl)-2-methyl-1H-benzo[d]imidazol-6-yl)-4-methoxypyrrolo[2,1-f][1,2,4]triazin-2-yl)amino)-1-methylcyclobutyl)acetamide] | 3.3
21 | COc1nc(N[C@H]2C[C@](C)(C(=O)N(C)C)C2)nn2ccc(-c3ccc4nc(C)n(CC(F)F)c4c3)c12 [Compound 109, trans-3-((5-(1-(2,2-Difluoroethyl)-2-methyl-1H-benzo[d]imidazol-6-yl)-4-methoxypyrrolo[2,1-f][1,2,4]triazin-2-yl)amino)-N,N,1-trimethylcyclobutane-1-carboxamide] | 1
22 | COc1nc(N[C@H]2CC[C@](C)(O)CC2)nn2ccc(-c3ccc4nc(C)n(CC(F)F)c4c3)c12 [Compound 112, trans-4-((5-(1-(2,2-Difluoroethyl)-2-methyl-1H-benzo[d]imidazol-6-yl)-4-methoxypyrrolo[2,1-f][1,2,4]triazin-2-yl)amino)-1-methylcyclohexan-1-ol] | 2.6
